Values of other authors in US20030060423A1, “Co-therapy for the treatment of dementia and associated behavioral manifestations comprising anticonvulsant derivatives and acetylcholinesterase inhibitors” (priority 2001, published 2003).

Assays:
[1] = tested on: behavioral and psychiatric symptoms of AD; settings: in vivo
seizures = settings: several rodent models of epilepsy
kindled epilepsy = settings: animal model of kindled epilepsy
focal ischemia = settings: used 2 hours after MCA embolization, rat
[2] = tested on: simple and complex partial seizures and secondarily generalized seizures; settings: clinical trials, adjunctive therapy or monotherapy
attention, cognition = settings: some individuals
[3] = tested on: neuronal damage following global ischemia; settings: gerbils

Structure (SMILES) | benefit on behavioral and psychiatric symptoms of AD [1] | modulation of nicotinic receptors (nicotinic receptors) | block of seizures (seizures) | block of seizures (kindled epilepsy) | neuroprotective effect (focal ischemia) | efficacy in treating simple and complex partial seizures and secondarily generalized seizures [2] | effect on attention (attention, cognition) | neuroprotective effect against neuronal damage [3]
COc1ccc2c3c1O[C@H]1C[C@@H](O)C=C[C@@]31CCN(C)C2 [galantamine, (4aS,6R,8aS)-4a,5,9,10,11,12-hexahydro-3-methoxy-11-methyl-6H-benzofuro[3a,3,2-ef][2]benzazepin-6-ol] | benefits on the behavioral and psychiatric symptoms of AD | allosteric modulation of nicotinic receptors | – | – | – | – | – | –
CC1(C)O[C@@H]2[C@@H](CO[C@@]3(COS(N)(=O)=O)OC(C)(C)O[C@@H]23)O1 [topiramate, 2,3:4,5-bis-O-(1-methylethylidene)-β-D-fructopyranose sulfamate] | – | – | effectively block seizures | effectively block seizures | dose- and use-dependent neuroprotective effect | effective as adjunctive therapy or as monotherapy | may impair attention | neuroprotective effect
